From patent US6552196B2, “Quinolone carboxylic acid derivatives” (Dong Wha Pharmaceutical Industrial Co., Ltd., priority 1997, dated 2003)
In brackets after ≈: the same amount, converted by molar mass.

Columns and labels:
Assay in all cases: In vitro antibacterial activity (MIC), agar dilution
Format in all cases: cell-based
[1] = tested on: Streptococcus pyogens 308A; conditions: 2-fold agar dilution, Muller-Hinton agar, 18 hours at 37° C., read-out: minimum inhibitory concentration (MIC)
Experimental: (§1) 10^7 cfu/ml of bacteria were inoculated and cultured for 18 hours at 37° C. and then the antibacterial activities were measured. For the methicillin resistant strains the activities were measured after 48 hours of cultivation at 30° C. Hoechst Standard strains were used for the testings.

Esherichia coli DC0 = conditions: 2-fold agar dilution, Muller-Hinton agar, 18 hours at 37° C., read-out: minimum inhibitory concentration (MIC)
Experimental: as §1

Esherichia coli TEM = conditions: 2-fold agar dilution, Muller-Hinton agar, 18 hours at 37° C., read-out: minimum inhibitory concentration (MIC)
Experimental: as §1

Klebsiella oxytoca 1082E = conditions: 2-fold agar dilution, Muller-Hinton agar, 18 hours at 37° C., read-out: minimum inhibitory concentration (MIC)
Experimental: as §1

[2] = tested on: Staphylococcus aureus 285; conditions: 2-fold agar dilution, Muller-Hinton agar, 18 hours at 37° C., read-out: minimum inhibitory concentration (MIC)
Experimental: as §1

[3] = tested on: Pseudomonas aeruginosa 1771; conditions: 2-fold agar dilution, Muller-Hinton agar, 18 hours at 37° C., read-out: minimum inhibitory concentration (MIC)
Experimental: as §1

Esherichia coli 1507E = conditions: 2-fold agar dilution, Muller-Hinton agar, 18 hours at 37° C., read-out: minimum inhibitory concentration (MIC)
Experimental: as §1

Salmonella typhimurium = conditions: Salmonella enterica, 2-fold agar dilution, Muller-Hinton agar, 18 hours at 37° C., read-out: minimum inhibitory concentration (MIC)
Experimental: as §1

[4] = tested on: Pseudomonas aeruginosa 1771M; conditions: Pseudomonas aeruginosa, 1771M, 18 h, read-out: minimum inhibitory concentration (MIC)
Experimental: as §1

[5] = tested on: Pseudomonas aeruginosa 9027; conditions: 2-fold agar dilution, Muller-Hinton agar, 18 hours at 37° C., read-out: minimum inhibitory concentration (MIC)
Experimental: as §1

[6] = tested on: Streptococcus faecium MD 8b; conditions: Enterococcus faecium, MD8B, 2-fold agar dilution, Muller-Hinton agar, 18 hours at 37° C., read-out: minimum inhibitory concentration (MIC)
Experimental: as §1

Esherichia coli 078 = conditions: 2-fold agar dilution, Muller-Hinton agar, 18 hours at 37° C., read-out: minimum inhibitory concentration (MIC)
Experimental: as §1

[7] = tested on: Staphylococcus aureus 503; conditions: 2-fold agar dilution, Muller-Hinton agar, 18 hours at 37° C., read-out: minimum inhibitory concentration (MIC)
Experimental: as §1

[8] = tested on: Streptococcus pyogens 77A; conditions: 2-fold agar dilution, Muller-Hinton agar, 18 hours at 37° C., read-out: minimum inhibitory concentration (MIC)
Experimental: as §1

[9] = tested on: Klebsiella aerogenes 1522E; conditions: 2-fold agar dilution, Muller-Hinton agar, 18 hours at 37° C., read-out: minimum inhibitory concentration (MIC)
Experimental: as §1

[10] = tested on: Pseudomonas aeruginosa 1592E; conditions: 2-fold agar dilution, Muller-Hinton agar, 18 hours at 37° C., read-out: minimum inhibitory concentration (MIC)
Experimental: as §1

Enterobacter clocae P99 = conditions: 2-fold agar dilution, Muller-Hinton agar, 18 hours at 37° C., read-out: minimum inhibitory concentration (MIC)
Experimental: as §1

[11] = tested on: Staphylococcus aureus SG511; conditions: 2-fold agar dilution, Muller-Hinton agar, 18 hours at 37° C., read-out: minimum inhibitory concentration (MIC)
Experimental: as §1

[12] = tested on: Enterobacter clocae 1321E; conditions: 2-fold agar dilution, Muller-Hinton agar, 18 hours at 37° C., read-out: minimum inhibitory concentration (MIC)
Experimental: as §1

| SMILES | MIC [1] | MIC (Esherichia coli DC0) | MIC (Esherichia coli TEM) | MIC (Klebsiella oxytoca 1082E) | MIC [2] | MIC [3] | MIC (Esherichia coli 1507E) | MIC (Salmonella typhimurium) | MIC [4] | MIC [5] | MIC [6] | MIC (Esherichia coli 078) | MIC [7] | MIC [8] | MIC [9] | MIC [10] | MIC (Enterobacter clocae P99) | MIC [11] | MIC [12] |
| --- | --- | --- | --- | --- | --- | --- | --- | --- | --- | --- | --- | --- | --- | --- | --- | --- | --- | --- | --- |
| CON=C1CN(c2nc3c(cc2F)c(=O)c(C(=O)O)cn3-c2ccc(F)cc2F)CC12CNC2.CS(=O)(=O)O [Example 7, 1-(2,4-Difluorophenyl)-6-fluoro-7-[8-(methoxyimino)-2,6-diazaspiro[3,4]oct-6-yl]-4-oxo-1,4-dihydro-1,8-naphthyridine-3-carboxylic acid methane sulfonate] | 0.195 µg/mL | 0.781 µg/mL | 0.098 µg/mL | 0.013 µg/mL | 0.049 µg/mL | 1.56 µg/mL | 0.195 µg/mL | 0.049 µg/mL | 0.781 µg/mL | 1.56 µg/mL | 0.098 µg/mL | 0.049 µg/mL | 0.025 µg/mL | 0.013 µg/mL | 0.195 µg/mL | 1.56 µg/mL | 0.098 µg/mL | 0.013 µg/mL | 0.049 µg/mL |
| CCON=C1CN(c2nc3c(cc2F)c(=O)c(C(=O)O)cn3C2CC2)CC12CNC2.CS(=O)(=O)O [Example 8, 1-Cyclopropyl-6-fluoro-7-[8-(ethoxyimino)-2,6-diazaspiro[3,4]oct-6-yl]-4-oxo-1,4-dihydro-1,8-naphthyridine-3-carboxylic acid methanesulfonate] | 0.098 µg/mL | 0.391 µg/mL | 0.025 µg/mL | 0.004 µg/mL | 0.025 µg/mL | 0.781 µg/mL | 0.049 µg/mL | 0.013 µg/mL | 0.781 µg/mL | 1.56 µg/mL | 0.098 µg/mL | 0.013 µg/mL | 0.013 µg/mL | 0.007 µg/mL | 0.098 µg/mL | 0.781 µg/mL | 0.025 µg/mL | 0.007 µg/mL | 0.025 µg/mL |
| CON=C1CN(c2nc3c(cc2F)c(=O)c(C(=O)O)cn3C2CC2)CC12CN(C)C2 [Example 10, 1-Cyclopropyl-6-fluoro-7-[8-(methoxyimino)-2-methyl-2,6-diazaspiro[3,4]oct-6-yl]-4-oxo-1,4-dihydro-1,8-naphthyridine-3-carboxylic acid] | 0.098 µg/mL (≈ 0.236 µM) | 0.391 µg/mL (≈ 0.941 µM) | 0.049 µg/mL (≈ 0.118 µM) | 0.007 µg/mL (≈ 0.0169 µM) | 0.049 µg/mL (≈ 0.118 µM) | 0.781 µg/mL (≈ 1.88 µM) | 0.049 µg/mL (≈ 0.118 µM) | 0.049 µg/mL (≈ 0.118 µM) | 0.781 µg/mL (≈ 1.88 µM) | 0.781 µg/mL (≈ 1.88 µM) | 0.098 µg/mL (≈ 0.236 µM) | 0.013 µg/mL (≈ 0.0313 µM) | 0.025 µg/mL (≈ 0.0602 µM) | 0.013 µg/mL (≈ 0.0313 µM) | 0.098 µg/mL (≈ 0.236 µM) | 0.781 µg/mL (≈ 1.88 µM) | 0.049 µg/mL (≈ 0.118 µM) | 0.013 µg/mL (≈ 0.0313 µM) | 0.025 µg/mL (≈ 0.0602 µM) |
